From PubChem BioAssay (NCI)
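Interpolation was linear, between the two tested concentrations surrounding the appropriate level; five concentrations were tested over 48 hours in 96-well plates. GI50 = concentration required for 50% inhibition of growth. TGI: total growth inhibition.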

Assays:
Test in all cases: DTP human tumour cell line panel, 48 h
CAKI-1 renal = system: CAKI-1 renal
COLO 205 colon = system: COLO 205 colon
HCC-2998 colon = system: HCC-2998 colon
HL-60(TB) leukemia = system: HL-60(TB) leukemia
MCF7 breast = system: MCF7 breast
MDA-MB-435 = system: MDA-MB-435
SF-539 CNS = system: SF-539 CNS
SNB-19 CNS = system: SNB-19 CNS
UACC-62 melanoma = system: UACC-62 melanoma
UO-31 renal = system: UO-31 renal

| Structure (SMILES) | TGI (CAKI-1 renal) | TGI (COLO 205 colon) | TGI (HCC-2998 colon) | TGI (HL-60(TB) leukemia) | TGI (MCF7 breast) | GI50 (MDA-MB-435) | TGI (MDA-MB-435) | TGI (SF-539 CNS) | TGI (SNB-19 CNS) | TGI (UACC-62 melanoma) | TGI (UO-31 renal) | GI50 (CAKI-1 renal) | GI50 (COLO 205 colon) | GI50 (HCC-2998 colon) | GI50 (HL-60(TB) leukemia) | GI50 (MCF7 breast) | GI50 (SF-539 CNS) | GI50 (SNB-19 CNS) | GI50 (UACC-62 melanoma) | GI50 (UO-31 renal) |
| --- | --- | --- | --- | --- | --- | --- | --- | --- | --- | --- | --- | --- | --- | --- | --- | --- | --- | --- | --- | --- |
| NC(=O)c1ccc(NN=O)nc1 | > 100 µM | > 100 µM | > 100 µM | > 100 µM | > 100 µM | > 100 µM | > 100 µM | > 100 µM | > 100 µM | > 100 µM | > 100 µM | – | – | – | – | – | – | – | – | – |
| Cl.Fc1c[c-]c(-c2ccccn2)c(F)c1.[Pt].c1ccc(P(c2ccccc2)C([PH+](c2ccccc2)c2ccccc2)[PH+](c2ccccc2)c2ccccc2)cc1 | 7.41 µM | 3.92 µM | 29.6 µM | 6.07 µM | > 100 µM | 3.4 µM | 16 µM | 11.3 µM | > 100 µM | 18 µM | 7.65 µM | 2.19 µM | 1.87 µM | 4.43 µM | 1.95 µM | 2.95 µM | 3.18 µM | 4.88 µM | 3.03 µM | 2.27 µM |
